Measured values published in patent US20240109881A1, “Heteroaryl Compounds as Ligand Directed Degraders of IRAK4” (Bristol-Myers Squibb Company, priority 2022, published 2024).
Counter-ions that a name gives are not always drawn.

Target: T1, IRAK4 (Homo sapiens, UniProt Q9NWZ3)
T1 construct: endogenous in cells; host or cells: THP-1 cells
T1 sequence (Q9NWZ3 1-460): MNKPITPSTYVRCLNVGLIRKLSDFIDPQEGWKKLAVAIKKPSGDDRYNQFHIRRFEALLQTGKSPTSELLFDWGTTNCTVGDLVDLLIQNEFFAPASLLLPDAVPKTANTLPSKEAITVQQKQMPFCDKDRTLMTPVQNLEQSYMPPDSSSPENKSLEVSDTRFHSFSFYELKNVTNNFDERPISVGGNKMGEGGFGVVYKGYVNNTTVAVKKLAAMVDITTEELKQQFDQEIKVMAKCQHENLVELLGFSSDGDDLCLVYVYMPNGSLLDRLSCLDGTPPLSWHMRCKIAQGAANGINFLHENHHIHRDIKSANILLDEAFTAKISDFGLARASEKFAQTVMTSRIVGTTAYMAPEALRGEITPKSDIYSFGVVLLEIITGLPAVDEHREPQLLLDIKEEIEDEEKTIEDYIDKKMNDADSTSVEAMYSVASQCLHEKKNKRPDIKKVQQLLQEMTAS
Assay: LVL THP1 HTRF (THP1 Homogeneous Time Resolved Fluorescence)
Type: cell-based
Conditions: THP1 cells, 18 h incubation with compound; for DC50: read-out: LVL THP1 HTRF EC50
How it was run: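 THP-1 cells in phenol red-free RPMI with 10% FBS were dosed with compound (20 nL in DMSO) for 18 h at 37° C. After 2 h lysis, IRAK4 was detected with anti-IRAK4-d2/anti-IRAK4-K HTRF antibodies for 18 h at room temperature and read at 665/615 nm; a parallel CTG plate was run.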

| SMILES | LVL THP1 HTRF YMIN [%] | DC50 [nM] |
| --- | --- | --- |
| C[C@H](C#N)Nc1cc(-n2ncc3cc(C#N)cnc32)ncc1-n1cc([C@H]2CC[C@H](C(Cl)CN3CCN(c4ccc(C5CCC(=O)NC5=O)cc4)CC3)CC2)nn1 (stereo partly drawn) [P-199, 1-(5-(4-((1R,4R)-4-((1R)-1-chloro-2-(4-(4-(2,6-dioxopiperidin-3-yl)phenyl)piperazin-1-yl)ethyl)cyclohexyl)-1H-1,2,3-triazol-1-yl)-4-(((R)-1-cyanoethyl)amino)pyridin-2-yl)-1H-pyrazolo[3,4-b]pyridine-5-carbonitrile.TFA] | 2.7 | 2 |
| C[C@H](C#N)Nc1cc(-n2ccc3cc(C#N)c(N)nc32)ncc1C(=O)N[C@H]1CC[C@H](CCN2CCN(c3ccc(C4CCC(=O)NC4=O)cc3)CC2)CC1 (stereo partly drawn) [P-200] | 1.5 | 13 |
| C[C@H](C#N)Nc1cc(-n2ncc3cc(C#N)cnc32)ncc1-n1cc(C2CCC(CCN3[C@@H](C)CN(c4ccc(C5CCC(=O)NC5=O)cc4)C[C@@H]3C)CC2)nn1 (stereo partly drawn) [P-201] | 0.6 | 2 |
| C[C@H](C#N)Nc1cc(-n2ncc3cc(C#N)cnc32)ncc1-n1cc(C23CCC(CCN4CCN(c5ccc(C6CCC(=O)NC6=O)cc5)CC4)(CC2)C3)nn1 (stereo partly drawn) [P-202, 1-(4-(((R)-1-cyanoethyl)amino)-5-(4-(4-(2-(4-(4-(2,6-dioxopiperidin-3-yl)phenyl)piperazin-1-yl)ethyl)bicyclo[2.2.1]heptan-1-yl)-1H-1,2,3-triazol-1-yl)pyridin-2-yl)-1H-pyrazolo[3,4-b]pyridine-5-carbonitrile, TFA] | 1.4 | 10 |
| C[C@H](C#N)Nc1cc(-n2ncc3cc(C#N)cnc32)ncc1-c1cnn(C2CCC(CCN3CCN(c4ccc(C5CCC(=O)NC5=O)cc4)CC3)CC2)c1 (stereo partly drawn) [P-203] | 3.0 | – |
| C[C@H](C#N)Nc1cc(-n2ncc3cc(C#N)cnc32)ncc1-c1cnn([C@H]2CC[C@H](CCN3CCN(c4ccc(C5CCC(=O)NC5=O)cc4)CC3)CC2)c1 (stereo partly drawn) [P-203] | – | 11 |
| C[C@@H](C#N)Nc1cc(-n2ncc3cc(C#N)cnc32)ncc1-n1cc(C2CCC(CCN3CCN(c4ccc(C5CCC(=O)NC5=O)cc4)CC3)CC2)nn1 (stereo partly drawn) [P-205] | 1.1 | – |
| C[C@@H](C#N)Nc1cc(-n2ncc3cc(C#N)cnc32)ncc1-n1cc([C@H]2CC[C@H](CCN3CCN(c4ccc(C5CCC(=O)NC5=O)cc4)CC3)CC2)nn1 (stereo partly drawn) [P-205] | – | 30 |
| C[C@H](C#N)Nc1cc(-n2ncc3cc(C#N)cnc32)ncc1-n1cc(C2CCC(CCN3C[C@H](C)N(c4ccc(C5CCC(=O)NC5=O)cc4)C[C@H]3C)CC2)nn1 (stereo partly drawn) [P-206] | 1.1 | 2 |
| C[C@H](C#N)Nc1cc(-n2ncc3cc(C#N)c(N)nc32)ncc1-n1cc(C2CCC(CCN3C[C@@H](C)N(c4ccc(C5CCC(=O)NC5=O)cc4)C[C@@H]3C)CC2)nn1 (stereo partly drawn) [P-207] | 1.3 | > 5000 |
| C[C@H](C#N)Nc1cc(-n2ncc3cc(C#N)cnc32)ncc1-n1cc(C2CCC(CCN3C[C@@H](C)N(c4ccc(C5CCC(=O)NC5=O)cc4)C[C@@H]3C)CC2)nn1 (stereo partly drawn) [P-208] | 1.4 | 9 |
| C[C@H](C#N)Nc1cc(-n2ncc3cc(C#N)cnc32)ncc1-n1cc(C2CCC(CCN3CCC(c4ccc(C5CCC(=O)NC5=O)cc4)CC3)CC2)nn1 (stereo partly drawn) [P-209] | 0.9 | – |
| C[C@H](C#N)Nc1cc(-n2ncc3cc(C#N)cnc32)ncc1-n1cc([C@H]2CC[C@H](CCN3CCC(c4ccc(C5CCC(=O)NC5=O)cc4)CC3)CC2)nn1 (stereo partly drawn) [P-209] | – | 1 |
| C[C@H](C#N)Nc1cc(-n2ncc3cc(C#N)cnc32)ncc1-n1cc(C2CCC(CCN3CCN(c4ccc([C@]5(C)CCC(=O)NC5=O)cc4)CC3)CC2)nn1 (stereo partly drawn) [P-210] | >95.0 | 15 |
| C[C@H](C#N)Nc1cc(-n2ncc3cc(C#N)cnc32)ncc1-c1cc(C2CCC(CCN3CCN(c4ccc(C5CCC(=O)NC5=O)cc4)CC3)CC2)no1 (stereo partly drawn) [P-211] | 1.1 | – |
| C[C@H](C#N)Nc1cc(-n2ncc3cc(C#N)cnc32)ncc1-c1cc([C@H]2CC[C@H](CCN3CCN(c4ccc(C5CCC(=O)NC5=O)cc4)CC3)CC2)no1 (stereo partly drawn) [P-211] | – | 3 |
| CC(C#N)Nc1cc(-n2ncc3cc(C#N)cnc32)ncc1-n1cc(C23CCC(CCN4CCN(c5ccc(C6CCC(=O)NC6=O)cc5)CC4)(CC2)CC3)nn1 (stereo not drawn) [P-212] | 1.5 | 3 |
| CC(C#N)Nc1cc(-n2ncc3cc(C#N)cnc32)ncc1-n1cc(C2CCC(C(C)CN3CCN(c4ccc(C5CCC(=O)NC5=O)cc4)CC3)CC2)nn1 (stereo not drawn) [P-213] | 1.7 | 2 |
| C[C@H](C#N)Nc1cc(-n2ncc3cc(C#N)c(N)nc32)ncc1-n1cc(C2CCC(CCN3CCC(c4ccc(C5CCC(=O)NC5=O)cc4)CC3)CC2)nn1 (stereo partly drawn) [P-214] | <0.5 | – |
| C[C@H](C#N)Nc1cc(-n2ncc3cc(C#N)c(N)nc32)ncc1-n1cc([C@H]2CC[C@H](CCN3CCC(c4ccc(C5CCC(=O)NC5=O)cc4)CC3)CC2)nn1 (stereo partly drawn) [P-214] | – | < 1 |

| SMILES | LVL THP1 HTRF YMIN [%] | DC50 [nM] |
| --- | --- | --- |
| C[C@H](C#N)Nc1cc(-n2ncc3cc(C#N)c(N)nc32)ncc1-n1cc(C2CCC(CCN3C[C@H](C)N(c4ccc(C5CCC(=O)NC5=O)cc4)C[C@H]3C)CC2)nn1 (stereo partly drawn) [P-215] | 0.7 | < 1 |
| C[C@H](C#N)Nc1cc(-n2ncc3cc(C#N)c(N)nc32)ncc1-n1cc(C2CCC(CCN3CCN(c4ccc(C5CCC(=O)NC5=O)cc4)[C@H](C)C3)CC2)nn1 (stereo partly drawn) [P-216] | 1. | 1 |
| CS(=O)(=O)N1CCC(Nc2cc(-n3ncc4cc(C#N)c(N)nc43)ncc2-n2cc(C3CCC(CCN4CCN(c5ccc(C6CCC(=O)NC6=O)cc5)CC4)CC3)nn2)CC1 (stereo not drawn) [P-217] | 1.6 | – |
| CS(=O)(=O)N1CCC(Nc2cc(-n3ncc4cc(C#N)c(N)nc43)ncc2-n2cc([C@H]3CC[C@H](CCN4CCN(c5ccc(C6CCC(=O)NC6=O)cc5)CC4)CC3)nn2)CC1 (stereo partly drawn) [P-217] | – | 9 |
| C[C@H](C#N)Nc1cc(-n2ncc3cncnc32)ncc1-n1cc(C2CCC(CCN3CCN(c4ccc(C5CCC(=O)NC5=O)cc4)CC3)CC2)nn1 (stereo partly drawn) [P-218] | 4.3 | – |
| C[C@H](C#N)Nc1cc(-n2ncc3cncnc32)ncc1-n1cc([C@H]2CC[C@H](CCN3CCN(c4ccc(C5CCC(=O)NC5=O)cc4)CC3)CC2)nn1 (stereo partly drawn) [P-218] | – | 6 |
| C[C@H](C#N)Nc1cc(-n2ncc3cc(C#N)c(N)nc32)ncc1-n1cc(C2CCC(CCN3CCN(c4ccc(C5CCC(=O)NC5=O)cc4)[C@@H](C)C3)CC2)nn1 (stereo partly drawn) [P-219] | 1.8 | 6 |
| C[C@H](C#N)Nc1cc(-n2ncc3cc(C#N)c(N)nc32)ncc1-n1cc(C2CCC(CCN3[C@H](C)CN(c4ccc(C5CCC(=O)NC5=O)cc4)C[C@H]3C)CC2)nn1 (stereo partly drawn) [P-220] | 4.3 | 6 |
| C[C@H](C#N)Nc1cc(-n2ncc3cc(C#N)cnc32)ncc1-n1cc(C2CCC(CCN3[C@H](C)CN(c4ccc(C5CCC(=O)NC5=O)cc4)C[C@H]3C)CC2)nn1 (stereo partly drawn) [P-221] | 1.4 | 5 |
| C[C@H](C#N)Nc1cc(-n2ncc3cc(C#N)c(N)nc32)ncc1-n1cc(C2CCC(CCN3CCN(c4ccc([C@@]5(C)CCC(=O)NC5=O)cc4)CC3)CC2)nn1 (stereo partly drawn) [P-222] | 2.1 | – |
| C[C@H](C#N)Nc1cc(-n2ncc3cc(C#N)c(N)nc32)ncc1-n1cc([C@H]2CC[C@H](CCN3CCN(c4ccc([C@@]5(C)CCC(=O)NC5=O)cc4)CC3)CC2)nn1 [P-222] | – | 7 |
| C[C@H](C#N)Nc1cc(-n2ncc3cc(C#N)c(N)nc32)ncc1-n1cc(C2CCC(CCN3[C@@H](C)CN(c4ccc(C5CCC(=O)NC5=O)cc4)C[C@@H]3C)CC2)nn1 (stereo partly drawn) [P-223] | 2.1 | < 1 |
| C[C@H](C#N)Nc1cc(-n2ncc3cc(C#N)cnc32)ncc1-c1ncn(C2CCC(CCN3CCN(c4ccc(C5CCC(=O)NC5=O)cc4)CC3)CC2)n1 (stereo partly drawn) [P-224] | 15.9 | – |
| C[C@H](C#N)Nc1cc(-n2ncc3cc(C#N)cnc32)ncc1-c1ncn([C@H]2CC[C@H](CCN3CCN(c4ccc(C5CCC(=O)NC5=O)cc4)CC3)CC2)n1 (stereo partly drawn) [P-224] | – | 60 |
| C[C@H](C#N)Nc1cc(-n2ncc3cncnc32)ncc1-n1cc(C2CCC(CCN3CCN(c4ccc([C@@]5(C)CCC(=O)NC5=O)cc4)CC3)CC2)nn1 (stereo partly drawn) [P-225] | 3.5 | – |
| C[C@H](C#N)Nc1cc(-n2ncc3cncnc32)ncc1-n1cc([C@H]2CC[C@H](CCN3CCN(c4ccc([C@@]5(C)CCC(=O)NC5=O)cc4)CC3)CC2)nn1 [P-225] | – | 133 |
| C[C@H](C#N)Nc1cc(-n2ncc3cc(C#N)cnc32)ncc1-n1cc([C@H]2CC[C@](O)(CCN3CCN(c4ccc(C5CCC(=O)NC5=O)cc4)CC3)CC2)nn1 (stereo partly drawn) [P-226, 1-(4-(((R)-1-cyanoethyl)amino)-5-(4-(4-(2-(4-(4-(2,6-dioxopiperidin-3-yl)phenyl)piperazin-1-yl)ethyl)-4-hydroxycyclohexyl)-1H-1,2,3-triazol-1-yl)pyridin-2-yl)-1H-pyrazolo[3,4-b]pyridine-5-carbonitrile] | 2.1 | 5 |
| C[C@H](C#N)Nc1cc(-n2ncc3cc(C#N)cnc32)ncc1-n1cc(C2CCC(O)(CCN3CCN(c4ccc(C5CCC(=O)NC5=O)cc4)CC3)CC2)nn1 (stereo partly drawn) [P-227] | 3.0 | 2 |
| C[C@H](C#N)Nc1cc(-n2ncc3cnc(N)nc32)ncc1-n1cc(C2CCC(CCN3CCN(c4ccc([C@@]5(C)CCC(=O)NC5=O)cc4)CC3)CC2)nn1 (stereo partly drawn) [P-228] | 3.6 | – |
